From patent publication US20110044938A1 (NYCOMED GMBH, priority 2006, published 2011)

Key:
[1] = system: subclones of RKO colon adenocarcinoma cells (RKOp27 or RKOp21) arrested by Ponasterone A; experiment: Alamar Blue cell viability assay, cell cycle specific mode of action: cells arrested by ectopic p27Kip1 induced by Ponasterone A versus proliferating cells; type: cell-based; details: Homo sapiens, RKO p27 induced (arrested) cells, 10 μM Ponasterone A, 72 hours, value = class bound given in Table A, read-out: −logIC50 RKO p27 induced (arrested) (converted)
Method in brief: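 RKOp27 or RKOp21 cells, 15000/well in DMEM/10% FCS, either arrested by p27Kip1 induced with 10 μM Ponasterone A or proliferating without inducer; compound added after 24 h, 72 h at 37° C. Alamar Blue fluorescence (544/590 nm), viability as % of untreated cells; −log IC50 reported.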

[2] = system: RKO (RKOp27) human colon adenocarcinoma cells; experiment: Alamar Blue cell viability assay, anti-proliferative/cytotoxic activity on proliferating RKO subclones; type: cell-based; details: RKOp27, 72 h, RKO p27 uninduced (proliferating) cells, value = class bound given in Table A, read-out: −logIC50 RKO p27 uninduced (proliferating) (converted)
Method in brief: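 RKOp27 subclones (5000 cells/well) were exposed 24 h after seeding to semi-log compound dilutions in DMEM with 10% FCS, in quadruplicate, for 72 h at 37 °C. Viability was read by Alamar Blue fluorescence (544/590 nm) relative to untreated cells (1% DMSO medium). IC50 came from concentration-effect curves and is reported as −log IC50 [mol/l].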

IC50 [1] [µM]	Compound	IC50 [2] [µM]
≥ 100	CCOc1ccccc1CCC(=O)Nc1sc2c(c1C#N)CCC(COC(=O)NCc1ccccc1)C2 (stereo not shown) [Example 160, Benzyl-carbamic acid 3-cyano-2-[3-(2-ethoxy-phenyl)-propanoylamino]-4,5,6,7-tetrahydro-benzo[b]thiophen-6-ylmethyl ester]	≤ 0.501
≥ 50.1	N#Cc1c(NC(=O)CCc2cccnc2)sc2c1CCC(OC(=O)NC1CC1)C2 (stereo not shown) [Example 161, Cyclopropyl-carbamic acid 3-cyano-2-(3-pyridin-3-yl-propanoylamino)-4,5,6,7-tetrahydro-benzo[b]thiophen-6-yl ester]	0.501 to 2
≥ 100	CNC(=O)OCC1CCc2c(sc(NC(=O)CCc3cccnc3)c2C#N)C1 (stereo not shown) [Example 162, Methyl-carbamic acid 3-cyano-2-(3-pyridin-3-yl-propanoylamino)-4,5,6,7-tetrahydro-benzo[b]thiophen-6-ylmethyl ester]	0.501 to 2
≥ 10	CCOc1ccccc1CCC(=O)Nc1sc2c(c1C#N)CCC(OC(=O)NCCn1ccnc1)C2 (stereo not shown) [Example 163, (2-Imidazol-1-yl-ethyl)-carbamic acid 3-cyano-2-[3-(2-ethoxy-phenyl)-propanoylamino]-4,5,6,7-tetrahydro-benzo[b]thiophen-6-yl ester]	≤ 0.501
≥ 10	CCOc1ccccc1CCC(=O)Nc1sc2c(c1C#N)CCC(COC(=O)NCCn1ccnc1)C2 (stereo not shown) [Example 164, (2-Imidazol-1-yl-ethyl)-carbamic acid 3-cyano-2-[3-(2-ethoxy-phenyl)-propanoylamino]-4,5,6,7-tetrahydro-benzo[b]thiophen-6-ylmethyl ester]	≤ 0.501
≥ 100	CCOc1ccccc1CCC(=O)Nc1sc2c(c1C#N)CCC(OC(=O)NCc1cccnc1)C2 (stereo not shown) [Example 165, Pyridin-3-ylmethyl-carbamic acid 3-cyano-2-[3-(2-ethoxy-phenyl)-propanoylamino]-4,5,6,7-tetrahydro-benzo[b]thiophen-6-yl ester]	≤ 0.501
≥ 100	CCOc1ccccc1CCC(=O)Nc1sc2c(c1C#N)CCC(OC(=O)NCCc1cccnc1)C2 (stereo not shown) [Example 166, (2-Pyridin-3-yl-ethyl)-carbamic acid 3-cyano-2-[3-(2-ethoxy-phenyl)-propanoylamino]-4,5,6,7-tetrahydro-benzo[b]thiophen-6-yl ester]	≤ 0.501
≥ 10	CCOc1ccccc1CCC(=O)Nc1sc2c(c1C#N)CCC(OC(=O)NCc1cncn1C)C2 (stereo not shown) [Example 167, (3-Methyl-3H-imidazol-4-ylmethyl)-carbamic acid 3-cyano-2-[3-(2-ethoxy-phenyl)-propanoylamino]-4,5,6,7-tetrahydro-benzo[b]thiophen-6-yl ester]	≤ 0.501
≥ 10	CCOc1ccccc1CCC(=O)Nc1sc2c(c1C#N)CCC(OC(=O)NCc1cn(C)cn1)C2 (stereo not shown) [Example 168, (1-Methyl-1H-imidazol-4-ylmethyl)-carbamic acid 3-cyano-2-[3-(2-ethoxy-phenyl)-propanoylamino]-4,5,6,7-tetrahydro-benzo[b]thiophen-6-yl ester]	≤ 0.501
≥ 50.1	CCOc1ccccc1CCC(=O)Nc1sc2c(c1C#N)CCC(OC(=O)NCc1ccnn1C)C2 (stereo not shown) [Example 169, (2-Methyl-2H-pyrazol-3-ylmethyl)-carbamic acid 3-cyano-2-[3-(2-ethoxy-phenyl)-propanoylamino]-4,5,6,7-tetrahydro-benzo[b]thiophen-6-yl ester]	≤ 0.501
≥ 100	CCOc1ccccc1CCC(=O)Nc1sc2c(c1C#N)CCC(OC(=O)NCc1cnn(C)c1)C2 (stereo not shown) [Example 170, (1-Methyl-1H-pyrazol-4-ylmethyl)-carbamic acid 3-cyano-2-[3-(2-ethoxy-phenyl)-propanoylamino]-4,5,6,7-tetrahydro-benzo[b]thiophen-6-yl ester]	≤ 0.501
≥ 50.1	CCOc1ccccc1CCC(=O)Nc1sc2c(c1C#N)CCC(OC(=O)NCc1ccncc1)C2 (stereo not shown) [Example 171, Pyridin-4-ylmethyl-carbamic acid 3-cyano-2-[3-(2-ethoxy-phenyl)-propanoylamino]-4,5,6,7-tetrahydro-benzo[b]thiophen-6-yl ester]	≤ 0.501
≥ 100	CCOc1ccccc1CCC(=O)Nc1sc2c(c1C#N)CCC(OC(=O)NCc1cc(C)on1)C2 (stereo not shown) [Example 172, (5-Methyl-isoxazol-3-ylmethyl)-carbamic acid 3-cyano-2-[3-(2-ethoxy-phenyl)-propanoylamino]-4,5,6,7-tetrahydro-benzo[b]thiophen-6-yl ester]	≤ 0.501
≥ 10	CCOc1ccccc1CCC(=O)Nc1sc2c(c1C#N)CCC(OC(=O)NCc1nccn1C)C2 (stereo not shown) [Example 173, (1-Methyl-1H-imidazol-2-ylmethyl)-carbamic acid 3-cyano-2-[3-(2-ethoxy-phenyl)-propanoylamino]-4,5,6,7-tetrahydro-benzo[b]thiophen-6-yl ester]	≤ 0.501
≥ 100	CCOc1ccccc1CCC(=O)Nc1sc2c(c1C#N)CCC(OC(=O)NCc1ccccn1)C2 (stereo not shown) [Example 174, Pyridin-2-ylmethyl-carbamic acid 3-cyano-2-[3-(2-ethoxy-phenyl)-propanoylamino]-4,5,6,7-tetrahydro-benzo[b]thiophen-6-yl ester]	≤ 0.501
≥ 100	CCOc1ccccc1CCC(=O)Nc1sc2c(c1C#N)CCC(COC(=O)NCc1cccnc1)C2 (stereo not shown) [Example 175, Pyridin-3-ylmethyl-carbamic acid 3-cyano-2-[3-(2-ethoxy-phenyl)-propanoylamino]-4,5,6,7-tetrahydro-benzo[b]thiophen-6-ylmethyl ester]	≤ 0.501
≥ 100	CCOc1ccccc1CCC(=O)Nc1sc2c(c1C#N)CCC(COC(=O)NCCc1cccnc1)C2 (stereo not shown) [Example 176, (2-Pyridin-3-yl-ethyl)-carbamic acid 3-cyano-2-[3-(2-ethoxy-phenyl)-propanoylamino]-4,5,6,7-tetrahydro-benzo[b]thiophen-6-ylmethyl ester]	≤ 0.501
≥ 50.1	CCOc1ccccc1CCC(=O)Nc1sc2c(c1C#N)CCC(COC(=O)NCc1cncn1C)C2 (stereo not shown) [Example 177, (3-Methyl-3H-imidazol-4-ylmethyl)-carbamic acid 3-cyano-2-[3-(2-ethoxy-phenyl)-propanoylamino]-4,5,6,7-tetrahydro-benzo[b]thiophen-6-ylmethyl ester]	≤ 0.501
≥ 50.1	CCOc1ccccc1CCC(=O)Nc1sc2c(c1C#N)CCC(COC(=O)NCc1cn(C)cn1)C2 (stereo not shown) [Example 178, (1-Methyl-1H-imidazol-4-ylmethyl)-carbamic acid 3-cyano-2-[3-(2-ethoxy-phenyl)-propanoylamino]-4,5,6,7-tetrahydro-benzo[b]thiophen-6-ylmethyl ester]	≤ 0.501
≥ 10	CCOc1ccccc1CCC(=O)Nc1sc2c(c1C#N)CCC(COC(=O)NCc1ncc[nH]1)C2 (stereo not shown) [Example 179, (1H-Imidazol-2-ylmethyl)-carbamic acid 3-cyano-2-[3-(2-ethoxy-phenyl)-propanoylamino]-4,5,6,7-tetrahydro-benzo[b]thiophen-6-ylmethyl ester]	≤ 0.501
